Assay results: ChEMBL document CHEMBL5634069, “Exploring N-myristoyltransferase as a promising drug target against parasitic neglected tropical diseases” (Eur J Med Chem, 2023)

How the values were obtained:
[1] = tested on: Leishmania donovani; assay: Antileishmanial activity against Leishmania donovani promastigote assessed as reduction in parasite growth measured after 72 hrs; assay type: functional, organism-based
[2] = tested on: Trypanosoma brucei brucei; assay: Antitrypanosomal activity against bloodstream Trypanosoma brucei brucei s427 assessed as reduction in parasite growth measured after 72 hrs by inverted microscope based analysis; assay type: functional, organism-based; conditions: s427, 72 h
[3] = tested on: Plasmodium falciparum; assay: Antiplasmodial activity against trophozoite stage Plasmodium falciparum 3D7 assessed as inhibition of plasmodial growth measured after 48 hrs by flow cytometry analysis; assay type: functional, organism-based; conditions: 3D7, 48 h
[4] = tested on: Plasmodium falciparum; assay: Antiplasmodial activity against chloroquine resistant Plasmodium falciparum K1 assessed as inhibition of plasmodial growth measured after 48 hrs by flow cytometry analysis; assay type: functional, organism-based; conditions: K1, 48 h
[5] = Cytotoxicity against MDCK cells incubated overnight by MTT assay; assay type: toxicity, cell-based, Canis lupus familiaris; conditions: dog
[6] = Selectivity index, ratio of IC50 for MDCK cells to IC50 for trophozoite stage Plasmodium falciparum 3D7; assay type: toxicity; conditions: dog; read-out: Ratio IC50
[7] = tested on: Trypanosoma cruzi; assay: Antiprotozoal activity against Trypanosoma cruzi amastigotes measured after 24 hrs; assay type: functional, organism-based
[8] = tested on: Trypanosoma brucei; assay: Antitrypanosomal activity against Trypanosoma brucei assessed as reduction in parasite growth; assay type: functional, organism-based
[9] = Inhibition of Trypanosoma brucei NMT
[10] = Inhibition of N terminal his-6 tagged recombinant Trypanosoma brucei NMT using CAP5.5 peptide as substrate incubated for 10 mins
[11] = tested on: Trypanosoma brucei; assay: Antiprotozoal activity against blood stream form Trypanosoma brucei assessed as reduction in number of viable parasites measured after 72 hrs by Alamar blue staining based analysis; assay type: functional; conditions: read-out: ED50 (the source's name)
[12] = Cytotoxicity against mouse RAW 264 cells by alamar blue staining based analysis; assay type: functional; conditions: RAW264.7, read-out: ED50 (the source's name)
[13] = tested on: Leishmania donovani; assay: Antileishmanial activity against Leishmania donovani MHOM/ET/67/HU3 axenic amastigotes; assay type: functional, organism-based
[14] = tested on: Leishmania amazonensis; assay: Antileishmanial activity against Leishmania amazonensis IFLA/BR/1967/PH8 promastigote; assay type: functional, organism-based
[15] = Binding affinity to Leishmania donovani NMT assessed as apparent inhibition constant; conditions: read-out: Ki(app)
[16] = tested on: Leishmania donovani; assay: Antileishmanial activity against Leishmania donovani amastigotes; assay type: functional, organism-based
[17] = target: T1, Glycylpeptide N-tetradecanoyltransferase (Plasmodium falciparum, UniProt Q9U419); assay: Inhibition of recombinant N-terminal Plasmodium falciparum NMT expressed in Escherichia coli using peptide substrate preincubated for 5 mins followed by substrate addition and measured after 30 mins by scintillation proximity assay
T1 sequence (Q9U419 whole entry): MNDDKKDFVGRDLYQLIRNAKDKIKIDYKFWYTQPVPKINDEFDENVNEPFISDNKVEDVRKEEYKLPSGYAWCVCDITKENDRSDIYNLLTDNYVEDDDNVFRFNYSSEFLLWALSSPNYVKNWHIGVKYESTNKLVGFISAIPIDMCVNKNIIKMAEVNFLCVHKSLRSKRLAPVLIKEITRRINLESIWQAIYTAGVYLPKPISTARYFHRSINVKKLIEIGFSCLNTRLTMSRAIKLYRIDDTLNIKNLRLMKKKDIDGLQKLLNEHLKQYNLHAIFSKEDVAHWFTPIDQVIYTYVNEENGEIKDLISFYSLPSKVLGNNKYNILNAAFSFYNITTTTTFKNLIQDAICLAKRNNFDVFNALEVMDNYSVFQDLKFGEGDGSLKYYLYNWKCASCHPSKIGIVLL

[18] = Inhibition of N terminal his-6 tagged recombinant Trypanosoma brucei NMT incubated for 30 mins using biotinylated peptide substrate by scintillation counter analysis

Compound `CCOC(=O)c1c(C)nn(-c2ccc(NS(=O)(=O)c3ccc(OC)cc3)cc2)c1C` has an IC50 [1] of 13.8 µM and an IC50 [2] of 2.91 µM.

`O=S(=O)(c1cc(Cl)ccc1Cl)N1CCC(O[C@@H](c2ccc(Cl)cc2)c2ccccn2)CC1` gave an IC50 [3] of 2.91 µM, an IC50 [4] of 4.19 µM and an IC50 [5] greater than 200 µM. The selectivity ratio [6] was greater than 68.8.

For `Cc1nn(C)c(C)c1N(C(F)F)S(=O)(=O)c1c(Cl)cc(-c2ccc(CCCC3CCN(C)CC3)cc2)cc1Cl`, the EC50 [7] was 0.06 µM.

In the case of `Cc1onc(-c2ccccc2)c1CNS(=O)(=O)c1cnn(-c2ccccc2)c1C`, the IC50 [1] is reported as 15.7 µM and the IC50 [2] is reported as 45 µM.

Work on `O=S(=O)(c1cc(Cl)ccc1Cl)N1CCC(O[C@H](c2ccc(Cl)cc2)c2ccccn2)CC1` yielded an IC50 [3] of 2.17 µM, an IC50 [4] of 2.38 µM and an IC50 [5] greater than 200 µM. The selectivity ratio [6] was greater than 92.3.

Work on `Cc1cc(CN2C(=O)COc3c(CCCCC4CCNCC4)cccc32)no1` yielded an EC50 [8] of 0.007 µM.

`Cc1nc(CN2C(=O)COc3ccccc32)no1` showed an IC50 [9] of 7 µM.

`CC(=O)O[C@@H]1C2[C@H](N(C)C)C(O)=C(C(N)=O)C(=O)[C@@]2(O)C(O)=C2C(=O)c3c(O)cccc3C(=O)[C@@H]21` (stereo not given in full) showed an IC50 [10] of 0.25 µM, an EC50 [11] of 66 µM and an EC50 [12] of 1500 µM.

Work on `Cc1nn(C)c(C)c1N(C)S(=O)(=O)c1c(Cl)cc(CCCC2CCN(C)CC2)cc1Cl` yielded an EC50 [13] of 7.1 µM.

Work on `Cc1cc(CN2C(=O)COc3c(CCCCC4CCN(C)CC4)cccc32)no1` yielded an EC50 [8] of 0.007 µM.

`COc1cc(C2SCC(=O)N2Cc2ccccn2)ccc1O` (stereo not given) gave an IC50 [9] of 0.27 µM and an EC50 [8] of 14 µM.

With `CCc1ccc(NC(=O)C[Se]C(=O)c2ccc(Cl)cc2)cc1` the IC50 [14] was 7.41 µM.

With `Cc1nn(C)c(C)c1N(C(F)F)S(=O)(=O)c1c(Cl)cc(-c2ccc(CCCCC3CCN(C)CC3)cc2)cc1Cl` the EC50 [7] was 0.02 µM.

Compound `Cc1nn(C)c(Cl)c1S(=O)(=O)Nc1ccc(Oc2ccc(F)cc2)cc1` has an IC50 [1] of 45.3 µM and an IC50 [2] of 11.8 µM.

Work on `COc1cc(C2SCC(=O)N2Cc2ccccc2)ccc1O` (stereo not given) yielded an IC50 [9] of 22 µM.

Work on `O=C(C[Se]C(=O)c1ccc(Cl)cc1)Nc1ccc(Cl)cc1` yielded an IC50 [14] of 9.12 µM.

With `Cc1cc(CN2C(=O)COc3ccccc32)no1` the IC50 [9] was 2.9 µM.

With `Cc1nn(C)c(C)c1NS(=O)(=O)c1c(Cl)cc(-c2ccnc(N3CCN(C)CC3)c2)cc1Cl` the Ki [15] was 0.0063 µM and the EC50 [16] was 0.15 µM.

Compound `O=C(C[Se]C(=O)c1ccccc1)Nc1ccc(Cl)cc1` has an IC50 [14] of 7.08 µM.

With `Cc1cc(CN2C(=O)COc3cc(CCCCC4CCN(C)CC4)ccc32)no1` the EC50 [8] was 0.007 µM.

`CCOC(=O)CN1C(=O)COc2ccccc21` showed an IC50 [9] of 12 µM.

With `O=C(C[Se]C(=O)c1ccccc1)Nc1ccc(Br)cc1` the IC50 [14] was 5.5 µM.

For `CN(C)C(=O)c1ccc2nc(NC(=O)[C@@H]3CCC[C@H](NCc4ccc5ccoc5c4)C3)sc2c1`, the IC50 [17] was 53 µM.

Work on `Cc1ccc(S(=O)(=O)Nc2ccccc2Sc2ncnc3c(C)csc23)cc1` yielded an IC50 [1] of 32.1 µM and an IC50 [2] of 9.36 µM.

Work on `COc1ccc(NC(=O)C[Se]C(=O)c2ccccc2)cc1` yielded an IC50 [14] of 8.71 µM.

`COc1ccc(Br)c(-c2nnc(-c3ccccc3NS(=O)(=O)c3ccc(Cl)cc3)o2)c1` showed an IC50 [2] of 14.7 µM.

In the case of `Cc1cc(CN2C(=O)COc3cc(CCCOC4CCNCC4)ccc32)no1`, the EC50 [8] is reported as 0.007 µM.

`O=C(O)C1=CC(=C(c2ccc(O)c(C(=O)O)c2)c2ccc(O)c(C(=O)O)c2)C=CC1=O` [AURINTRICARBOXYLIC ACID] showed an IC50 [18] of 0.74 µM.

In the case of `Cc1c2c(c(O)c3c(O)cccc13)C(=O)OC2c1cc(O)c(C(N)=O)c(O)c1O` (stereo not given), the IC50 [18] is reported as 0.77 µM, the IC50 [10] is reported as 0.46 µM and the EC50 [11] is reported as 16 µM. The EC50 [12] was 328 µM.

In the case of `O=[N+]([O-])c1ccc(S(=O)(=O)N2CCC(O[C@@H](c3ccc(Cl)cc3)c3ccccn3)CC2)cc1`, the IC50 [3] is reported as 3.27 µM, the IC50 [4] is reported as 7.22 µM and the IC50 [5] is reported as greater than 200 µM. It also gave a selectivity ratio [6] greater than 61.1.
